Laboratory results from patent publication US20240174624A1, “CHIRAL N-(1,3,4-OXADIAZOLE-2-YL)PHENYL CARBOXYLIC ACID AMIDES AND THEIR USE AS HERBICIDES” (Bayer Aktiengesellschaft, priority 2021, published 2024).

Columns and labels:
ALOMY = experiment: Pre-emergence herbicidal action; format: in vivo, Alopecurus myosuroides; conditions: 80 g/ha, scored after 3 weeks
Excerpt: (§1) Seeds of monocotyledonous and dicotyledonous weed plants and crop plants are laid out in sandy loam soil in wood-fibre pots and covered with soil. The compounds of the invention, formulated in the form of wettable powders (WP) or as emulsion concentrates (EC), are then applied to the surface of the covering soil in the form of an aqueous suspension or emulsion at a water application rate equivalent to 600 to 800 l/ha, with addition of 0.2% wetting agent. After the treatment, the pots are placed in a greenhouse and kept under good growth conditions for the trial plants. The damage to the test plants is scored visually after a test period of 3 weeks by comparison with untreated controls (herbicidal activity in percent (%): 100% activity=the plants have died, 0% activity=like control plants). […] The tables below illustrate, in an illustrative manner, the post-emergence herbicidal action of the compounds of the invention, the herbicidal activity being stated in percent. In the experiments that follow, the herbicidal action of the compounds of the invention and that of the corresponding known racemic compounds closest from WO2012126932 and WO2018202535 were compared under the above-specified conditions by the pre-emergence and post-emergence method. The example numbers given in the tables relate to the compounds disclosed in the respective documents.

AMARE [1] = experiment: Pre-emergence herbicidal action; format: in vivo, Amaranthus retroflexus; conditions: scored after 3 weeks
Excerpt: as §1, with “percent.” for “percent. In the experiments that follow, the herbicidal action of the compounds of the invention and that of the corresponding known racemic compounds closest from WO2012126932 and WO2018202535 were compared under the above-specified conditions by the pre-emergence and post-emergence method. The example numbers given in the tables relate to the compounds disclosed in the respective documents.”

AVEFA = experiment: Pre-emergence herbicidal action; format: in vivo, Avena fatua; conditions: 80 g/ha, scored after 3 weeks
Excerpt: as §1

ECHCG [2] = experiment: Pre-emergence herbicidal action; format: in vivo, Echinochloa crus-galli; conditions: scored after 3 weeks
Excerpt: as §1, with “percent.” for “percent. In the experiments that follow, the herbicidal action of the compounds of the invention and that of the corresponding known racemic compounds closest from WO2012126932 and WO2018202535 were compared under the above-specified conditions by the pre-emergence and post-emergence method. The example numbers given in the tables relate to the compounds disclosed in the respective documents.”

LOLRI = experiment: Pre-emergence herbicidal action; format: in vivo, Lolium rigidum; conditions: 80 g/ha, scored after 3 weeks
Excerpt: as §1

MATIN [3] = experiment: Pre-emergence herbicidal action; format: in vivo, Matricaria inodora; conditions: scored after 3 weeks
Excerpt: as §1

POLCO [4] = experiment: Pre-emergence herbicidal action; format: in vivo, Polygonum convolvulus; conditions: 80 g/ha, scored after 3 weeks
Excerpt: as §1

SETVI [5] = experiment: Pre-emergence herbicidal action; format: in vivo, Setaria viridis; conditions: scored after 3 weeks
Excerpt: as §1

VERPE [6] = experiment: Pre-emergence herbicidal action; format: in vivo, Veronica persica; conditions: scored after 3 weeks
Excerpt: as §1

VIOTR [7] = experiment: Pre-emergence herbicidal action; format: in vivo, Viola tricolor; conditions: scored after 3 weeks
Excerpt: as §1, with “percent.” for “percent. In the experiments that follow, the herbicidal action of the compounds of the invention and that of the corresponding known racemic compounds closest from WO2012126932 and WO2018202535 were compared under the above-specified conditions by the pre-emergence and post-emergence method. The example numbers given in the tables relate to the compounds disclosed in the respective documents.”

TRZAS [8] = experiment: Pre-emergence damage to crop plants; format: in vivo, Triticum aestiva; conditions: comparative experiment
Excerpt: as §1

GLXMA = experiment: Pre-emergence damage to crop plants; format: in vivo, Glycine max; conditions: 80 g a.i./ha, comparative experiment
Excerpt: as §1

AMARE [9] = experiment: Post-emergence herbicidal action; format: in vivo, Amaranthus retroflexus; conditions: assessed after about 3 weeks
Procedure: (§2) Seeds of monocotyledonous and dicotyledonous weed and crop plants are laid out in sandy loam soil in wood-fibre pots, covered with soil and cultivated in a greenhouse under good growth conditions. 2 to 3 weeks after sowing, the test plants are treated at the one-leaf stage. The compounds of the invention, formulated in the form of wettable powders (WP) or as emulsion concentrates (EC), are then sprayed onto the green parts of the plants in the form of an aqueous suspension or emulsion at a water application rate equating to 600 to 800 l/ha, with addition of 0.2% wetting agent. After the test plants have been left to stand in the greenhouse under optimal growth conditions for about 3 weeks, the action of the preparations is assessed visually in comparison to untreated controls (herbicidal action in percent (%): 100% activity=the plants have died, 0% activity=like control plants). […] The tables below illustrate, in an illustrative manner, the post-emergence herbicidal action of the compounds of the invention, the herbicidal activity being stated in percent.

ECHCG [10] = experiment: Post-emergence herbicidal action; format: in vivo, Echinochloa crus-galli; conditions: for Post-emergence action against ECHCG: assessed after about 3 weeks
Procedure: as §2, with “percent. In the experiments that follow, the herbicidal action of the compounds of the invention and that of the corresponding known racemic compounds closest from WO2012126932 and WO2018202535 were compared under the above-specified conditions by the pre-emergence and post-emergence method. The example numbers given in the tables relate to the compounds disclosed in the respective documents.” for “percent.”

MATIN [11] = experiment: Post-emergence herbicidal action; format: in vivo, Matricaria inodora; conditions: assessed after about 3 weeks
Procedure: as §2

PHBPU = experiment: Post-emergence herbicidal action; format: in vivo, Pharbitis purpurea; conditions: assessed after about 3 weeks
Procedure: as §2

POLCO [12] = experiment: Post-emergence herbicidal action; format: in vivo, Polygonum convolvulus; conditions: 20 g/ha, assessed after about 3 weeks
Procedure: as §2

SETVI [13] = experiment: Post-emergence herbicidal action; format: in vivo, Setaria viridis; conditions: assessed after about 3 weeks
Procedure: as §2, with “percent. In the experiments that follow, the herbicidal action of the compounds of the invention and that of the corresponding known racemic compounds closest from WO2012126932 and WO2018202535 were compared under the above-specified conditions by the pre-emergence and post-emergence method. The example numbers given in the tables relate to the compounds disclosed in the respective documents.” for “percent.”

VERPE [14] = experiment: Post-emergence herbicidal action; format: in vivo, Veronica persica; conditions: assessed after about 3 weeks
Procedure: as §2, with “percent. In the experiments that follow, the herbicidal action of the compounds of the invention and that of the corresponding known racemic compounds closest from WO2012126932 and WO2018202535 were compared under the above-specified conditions by the pre-emergence and post-emergence method. The example numbers given in the tables relate to the compounds disclosed in the respective documents.” for “percent.”

VIOTR [15] = experiment: Post-emergence herbicidal action; format: in vivo, Viola tricolor; conditions: assessed after about 3 weeks
Procedure: as §2, with “percent. In the experiments that follow, the herbicidal action of the compounds of the invention and that of the corresponding known racemic compounds closest from WO2012126932 and WO2018202535 were compared under the above-specified conditions by the pre-emergence and post-emergence method. The example numbers given in the tables relate to the compounds disclosed in the respective documents.” for “percent.”

ORYZA = experiment: Post-emergence damage to crop plants; format: in vivo, Oryza sativa; conditions: 5 g a.i./ha, comparative experiment
Procedure: as §2, with “percent. In the experiments that follow, the herbicidal action of the compounds of the invention and that of the corresponding known racemic compounds closest from WO2012126932 and WO2018202535 were compared under the above-specified conditions by the pre-emergence and post-emergence method. The example numbers given in the tables relate to the compounds disclosed in the respective documents.” for “percent.”

DIGSA [16] = experiment: Pre-emergence herbicidal action; format: in vivo, Digitaria sanguinalis; conditions: scored after 3 weeks
Excerpt: as §1, with “percent.” for “percent. In the experiments that follow, the herbicidal action of the compounds of the invention and that of the corresponding known racemic compounds closest from WO2012126932 and WO2018202535 were compared under the above-specified conditions by the pre-emergence and post-emergence method. The example numbers given in the tables relate to the compounds disclosed in the respective documents.”

STEME [17] = experiment: Pre-emergence herbicidal action; format: in vivo, Stellaria media; conditions: scored after 3 weeks
Excerpt: as §1

ZEAMX = experiment: Pre-emergence damage to crop plants; format: in vivo, Zea mays; conditions: comparative experiment
Excerpt: as §1

BRSNW = experiment: Pre-emergence damage to crop plants; format: in vivo, Brassica napus; conditions: 20 g a.i./ha, comparative experiment
Excerpt: as §1

DIGSA [18] = experiment: Post-emergence herbicidal action; format: in vivo, Digitaria sanguinalis; conditions: assessed after about 3 weeks
Procedure: as §2, with “percent. In the experiments that follow, the herbicidal action of the compounds of the invention and that of the corresponding known racemic compounds closest from WO2012126932 and WO2018202535 were compared under the above-specified conditions by the pre-emergence and post-emergence method. The example numbers given in the tables relate to the compounds disclosed in the respective documents.” for “percent.”

STEME [19] = experiment: Post-emergence herbicidal action; format: in vivo, Stellaria media; conditions: 20 g/ha, assessed after about 3 weeks
Procedure: as §2, with “percent. In the experiments that follow, the herbicidal action of the compounds of the invention and that of the corresponding known racemic compounds closest from WO2012126932 and WO2018202535 were compared under the above-specified conditions by the pre-emergence and post-emergence method. The example numbers given in the tables relate to the compounds disclosed in the respective documents.” for “percent.”

TRZAS [20] = experiment: Post-emergence damage to crop plants; format: in vivo, Triticum aestiva; conditions: comparative experiment
Procedure: as §2, with “percent. In the experiments that follow, the herbicidal action of the compounds of the invention and that of the corresponding known racemic compounds closest from WO2012126932 and WO2018202535 were compared under the above-specified conditions by the pre-emergence and post-emergence method. The example numbers given in the tables relate to the compounds disclosed in the respective documents.” for “percent.”

SMILES	Pre-emergence action against AMARE (AMARE [1]; 20 g/ha) [%]	Pre-emergence action against AMARE (AMARE [1]; 80 g/ha) [%]	Pre-emergence action against ECHCG (ECHCG [2]; 20 g/ha) [%]	Pre-emergence action against ECHCG (ECHCG [2]; 80 g/ha) [%]	Pre-emergence action against MATIN (MATIN [3]; 80 g/ha) [%]	Pre-emergence action against SETVI (SETVI [5]; 80 g/ha) [%]	Pre-emergence action against VIOTR (VIOTR [7]; 20 g/ha) [%]	Pre-emergence action against VIOTR (VIOTR [7]; 80 g/ha) [%]	Damage to TRZAS (TRZAS [8]; 20 g a.i./ha) [%]	Damage to TRZAS (TRZAS [8]; 80 g a.i./ha) [%]	Damage to GLXMA (GLXMA) [%]	Post-emergence action against AMARE (AMARE [9]; 5 g/ha) [%]	Post-emergence action against AMARE (AMARE [9]; 20 g/ha) [%]	Post-emergence action against ECHCG (ECHCG [10]; 5 g/ha) [%]	Post-emergence action against ECHCG (ECHCG [10]; 20 g/ha) [%]	Post-emergence action against MATIN (MATIN [11]; 20 g/ha) [%]	Post-emergence action against PHBPU (PHBPU; 20 g/ha) [%]	Post-emergence action against SETVI (SETVI [13]; 20 g/ha) [%]	Post-emergence action against VIOTR (VIOTR [15]; 20 g/ha) [%]	Damage to ORYZA (ORYZA) [%]	also measured
C[S+]([O-])c1c(C(F)F)ccc(C(=O)Nc2nnco2)c1Cl (stereo in doubt) [Example I-2, 2-chloro-N-(1,3,4-oxadiazol-2-yl)-3-[(S)-methylsulfinyl]-4-(difluoromethyl)benzamide]	100	100	100	100	100	100	100	100	20	70	30	100	100	90	90	90	90	90	100	0	Pre-emergence action against ALOMY (ALOMY): 90%; Pre-emergence action against AVEFA (AVEFA): 100%; Pre-emergence action against LOLRI (LOLRI): 90%; Pre-emergence action against MATIN (MATIN [3]; 20 g/ha): 100%; Pre-emergence action against POLCO (POLCO [4]): 90%; Pre-emergence action against SETVI (SETVI [5]; 20 g/ha): 100%; Pre-emergence action against VERPE (VERPE [6]; 20 g/ha): 80%; Pre-emergence action against VERPE (VERPE [6]; 80 g/ha): 80%; Herbicidal action against ECHCG (ECHCG [10]; 5 g a.i./ha, comparative experiment): 90%; Post-emergence action against MATIN (MATIN [11]; 5 g/ha): 90%; Post-emergence action against POLCO (POLCO [12]): 80%; Post-emergence action against SETVI (SETVI [13]; 5 g/ha): 90%; Post-emergence action against VERPE (VERPE [14]; 5 g/ha): 90%; Post-emergence action against VERPE (VERPE [14]; 20 g/ha): 100%; Post-emergence action against VIOTR (VIOTR [15]; 5 g/ha): 90%
Cc1c(C(=O)Nc2nnco2)ccc(C(F)(F)F)c1[S+](C)[O-] (stereo in doubt) [Example I-3, 2-methyl-N-(1,3,4-oxadiazol-2-yl)-3-[(S)-methylsulfinyl]-4-(trifluoromethyl)benzamide]	100	100	90	100	90	90	90	100	0	30	50	90	90	80	90	80	80	90	90	30	Pre-emergence action against DIGSA (DIGSA [16]; 20 g/ha): 100%; Pre-emergence action against DIGSA (DIGSA [16]; 80 g/ha): 100%; Pre-emergence action against STEME (STEME [17]; 20 g/ha): 80%; Pre-emergence action against STEME (STEME [17]; 80 g/ha): 100%; Damage to ZEAMX (ZEAMX; 20 g a.i./ha): 0%; Damage to ZEAMX (ZEAMX; 80 g a.i./ha): 0%; Damage to BRSNW (BRSNW): 70%; Post-emergence action against DIGSA (DIGSA [18]; 5 g/ha): 90%; Post-emergence action against DIGSA (DIGSA [18]; 20 g/ha): 90%; Post-emergence action against PHBPU (PHBPU; 5 g/ha): 80%; Post-emergence action against STEME (STEME [19]): 80%; Damage to TRZAS (TRZAS [20]; 5 g a.i./ha): 20%; Damage to TRZAS (TRZAS [20]; 20 g a.i./ha): 30%
